Assay results: patent publication US6482809B1, “Use of tiludronic acid and derivatives thereof in poultry for the preparation of a medicinal product for preventing and treating osteoporosis” (Ceva Sante Animale, priority 2000, dated 2002)

Columns and labels:
[1] = test system: medullary bone of the tarsometatarsal bone of hens; assay: Histomorphometric examination of medullary bone volume of the tarsometatarsal bone after a single subcutaneous administration; format: in vivo, hens of ISA Brown strain
Procedure: (§1) A total number of 216 hens of ISA Brown strain between 15 and 17 weeks old was divided into 3 groups for the purpose of evaluating the effects on bone of a single subcutaneous administration of tiludronic acid, in the form of its sodium salt (disodium tiludronate).
(§2) Three doses were compared: 0, 1 and 10 mg/kg (corresponding amount of tiludronic acid/kg). The tiludronic acid was administered in the form of injectable aqueous solutions such that the volume injected per bird was 1 ml per kilo of live weight. The tiludronic acid solutions were thus concentrated to 0.1% and 1% for the doses of 1 and 10 mg/kg, respectively. The control group received a placebo corresponding to water for an injectable preparation. The injections were performed subcutaneously in the region above the superficial pectoral muscle.
(§3) The hens were housed in individual cages in the same building at controlled temperature and hygrometry. Each animal was identified by a number carried on a ring attached to a wing. They received the same standard feed for laying hens, freely throughout the duration of the study. The drinking water was also distributed freely.
(§4) The average age of onset of laying for the hens in this strain is 20 weeks. Consequently, the average delay between the treatment and the age of onset of laying had to be from 3 to 5 weeks. The duration of the study was 40 weeks. At the end of the study, the hens were 55 weeks old.
(§5) Half of the total number was sacrificed on laying the first egg, in order to carry out a histomorphometric examination performed on a decalcified section of the proximal region of one of the tarsometatarsal bones in order to measure the trabecular and medullary bone volumes.
(§6) The other half of the total number of hens was monitored up to 55 weeks of age (i.e. after about 34 weeks of laying), at which point all the remaining animals were sacrificed. The same bone examination was carried out on these animals as on the hens sacrificed after laying the first egg.
(§7) The bone parameters were compared by means of a one-factor variance analysis (dose factor).
(§8) The histomorphometric examination carried out allows the changes in the structure of the bone to be assessed.

[2] = test system: osteoporosis in menopausal women; conditions: 50 or 200 mg per person orally; cited from earlier work
[3] = test system: trabecular bone of the tarsometatarsal bone of hens; assay: Histomorphometric examination of trabecular bone volume of the tarsometatarsal bone after a single subcutaneous administration; format: in vivo, hens of ISA Brown strain
Procedure: as §1, §2, §3, §4, §5, §6, §7, §8

[4] = test system: medullary bone of laying hens; conditions: 18 weeks after the onset of laying; treated before the onset of laying; cited from earlier work
[5] = test system: egg production of laying hens; conditions: administered during laying; decrease or even stoppage of laying as a function of the dose; cited from earlier work
[6] = test system: trabecular bone of laying hens; conditions: cited from earlier work
[7] = at 55 weeks old, 1 mg/kg single subcutaneous injection
[8] = at 55 weeks old, 10 mg/kg single subcutaneous injection

Compound	Average medullary bone volumes, comparison between the groups ([1]; at 55 weeks old, 0, 1 and 10 mg/kg)	Volume of medullary bone of the tarsometatarsal bone [1, 7] [%]	Medullary bone volume higher than that in the control animals ([1]; at 55 weeks old, 10 mg/kg) [%]	Volume of medullary bone of the tarsometatarsal bone [1, 8] [%]	Medullary bone volumes, comparison between the groups ([1]; onset of laying, 0, 1 and 10 mg/kg)	Efficacy in osteoporosis in menopausal women [2]	Trabecular bone loss during laying ([3]; 1 mg/kg, onset of laying to 55 weeks old)	Trabecular volume versus controls ([3]; at 55 weeks of age, 10 mg/kg)	Trabecular bone volume of the tarsometatarsal bone [3, 7] [%]	Trabecular bone volume of the tarsometatarsal bone [3, 8] [%]	Variation of trabecular bone volume between the two periods ([3]; onset of laying to 55 weeks old, 1 mg/kg)	Variation of trabecular bone volume between the two periods ([3]; onset of laying to 55 weeks old, 10 mg/kg) [%]	Trabecular bone volume of the tarsometatarsal bone ([3]; onset of laying, 1 mg/kg single subcutaneous injection at 15-17 weeks old) [%]	Gain in trabecular bone volume compared with the controls ([3]; onset of laying, 10 mg/kg) [%]	Trabecular bone volume of the tarsometatarsal bone ([3]; onset of laying, 10 mg/kg single subcutaneous injection at 15-17 weeks old) [%]	Medullary bone volume less than that of the control animals [4]	Effect on egg production [5]	Trabecular bone volume higher than that of the control hens ([6]; after laying for 18 weeks, 0.01 mg/kg s.c., 6 administrations (total 0.06 mg/kg) from 14 weeks old)	Trabecular bone volume higher on average in the treated hens than in the control hens ([6]; onset of laying, 0.01 mg/kg subcutaneously, repeated before laying) [%]
tiludronic acid	not significantly different between the groups	2.75 ± 2.72	20	3.53 ± 3.04	does not reveal any significant difference between the groups	not demonstrated their efficacy	no trabecular bone loss took place during laying	significantly higher than that of the controls	11.3 ± 2.5	12.0 ± 2.0	+4%	−12	10.9 ± 2.9	12	13.7 ± 3.3				
NCCCC(O)(P(=O)(O)O)P(=O)(O)O [alendronic acid]																about 20%	harmful effect on egg production	about 35%	≤ 30
